Legend:
[1] = pH of the simplified permanent-waving composition; type: physicochemical
Procedure: […]. The pH of the composition was 13.6. This composition was applied to Caucasian hair, wound beforehand onto curlers, for 15 minutes at a temperature of 30° C.
[…]. The pH of the composition was 13.5. This composition was applied to Caucasian hair, wound beforehand onto curlers, for 25 minutes at a temperature of 30° C.
(§1) A simplified permanent-waving composition was prepared, containing, as a permanent-waving active agent, 1,3,4,6,7,8-hexahydro-2H-pyrimido[1,2-a]pyrimidine (Registry Number [5807-14-7]) at a concentration of 0.7 M in water. The pH of the composition was 13.5. This composition was applied to Caucasian hair, wound beforehand onto curlers, for 15 minutes at a temperature of 30° C.
as §1, with “0.5M” for “0.7 M”, “13.4.” for “13.5.”, “20” for “15”

[2] = permanent-waving of hair wound onto curlers with a simplified aqueous composition; settings: Caucasian hair wound onto curlers
Procedure: In the permanent shaping processes described herein, the composition is applied to wet or dry hair, wound beforehand onto rollers (curlers) having a diameter of from 2 mm to 30 mm. It is also possible to apply the composition as the hair is wound up. […] This composition was applied to Caucasian hair, wound beforehand onto curlers, for 15 minutes at a temperature of 30° C. […] This composition was applied to Caucasian hair, wound beforehand onto curlers, for 25 minutes at a temperature of 30° C. […] This composition was applied to Caucasian hair, wound beforehand onto curlers, for 15 minutes at a temperature of 30° C. […] This composition was applied to Caucasian hair, wound beforehand onto curlers, for 20 minutes at a temperature of 30° C.

pH of the composition ([1]; 0.5M in water)	pH of the composition ([1]; 0.7 M in water)	Compound	result on the hair after permanent-waving (curl and feel) ([2]; 0.5M in water, applied 20 minutes at 30° C.)	result on the hair after permanent-waving (curl and feel) ([2]; 0.7 M in water, applied 15 minutes at 30° C.)
13.4	13.5	C1CN=C2NCCCN2C1 [1,3,4,6,7,8-hexahydro-2H-pyrimido[1,2-a]pyrimidine]	beautifully curly and felt soft	beautifully curly and felt soft
13.5	13.6	CN(C)C(=N)NC(=N)N [1,1-dimethylbiguanide]	–	–

From US20090194124A1, “Hair Shaping Kit and Process Comprising at Least One Non-Hydroxide Imine” (priority 2003, published 2009)
